Patent US12590099B2, “Inhibitors of histone deacetylase useful for the treatment or prevention of HIV infection” (Merck Sharp & Dohme LLC, priority 2018, dated 2026)

Experiments:
Assay type in all cases: biochemical
Recombinant human HDAC8 = target: T1, Recombinant human HDAC8 (Homo sapiens, UniProt Q9BY41); assay: Human HDAC enzyme inhibitor Fluor-de-Lys assay, HDAC8
T1 construct: purchased Enzo Life Sciences BML-SE145-0100
T1 sequence (Q9BY41 1-377): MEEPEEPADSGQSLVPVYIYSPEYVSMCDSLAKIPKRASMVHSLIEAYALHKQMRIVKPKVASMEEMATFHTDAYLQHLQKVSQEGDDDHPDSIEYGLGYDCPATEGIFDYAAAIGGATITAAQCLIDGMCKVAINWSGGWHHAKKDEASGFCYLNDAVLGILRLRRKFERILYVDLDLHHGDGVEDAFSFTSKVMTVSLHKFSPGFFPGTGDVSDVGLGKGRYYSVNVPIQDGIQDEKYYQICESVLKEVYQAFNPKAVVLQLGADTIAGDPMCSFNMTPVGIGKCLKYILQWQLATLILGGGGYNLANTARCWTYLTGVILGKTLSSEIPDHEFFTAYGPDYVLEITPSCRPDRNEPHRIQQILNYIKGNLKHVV

[1] = target: T2, Recombinant human HDAC3/SMRT heterodimer (Homo sapiens, UniProt O15379); assay: Human HDAC enzyme inhibitor Fluor-de-Lys assay, HDAC3/SMRT
T2 construct: FLAG (C); made in house
T2 sequence (O15379 whole entry): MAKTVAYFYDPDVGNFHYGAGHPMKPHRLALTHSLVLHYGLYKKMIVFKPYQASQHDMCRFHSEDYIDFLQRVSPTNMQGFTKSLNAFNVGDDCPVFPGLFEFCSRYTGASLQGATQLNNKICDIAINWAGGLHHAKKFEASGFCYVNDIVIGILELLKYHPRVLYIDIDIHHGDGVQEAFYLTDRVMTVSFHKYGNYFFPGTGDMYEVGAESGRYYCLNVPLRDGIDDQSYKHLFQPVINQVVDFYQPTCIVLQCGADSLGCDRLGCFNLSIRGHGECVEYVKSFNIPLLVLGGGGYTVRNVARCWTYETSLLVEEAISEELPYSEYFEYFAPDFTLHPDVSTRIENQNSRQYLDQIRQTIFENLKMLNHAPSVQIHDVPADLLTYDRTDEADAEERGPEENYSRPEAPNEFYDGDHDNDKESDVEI
T2 sequence (Q9Y618 1-899 partner limits assumed): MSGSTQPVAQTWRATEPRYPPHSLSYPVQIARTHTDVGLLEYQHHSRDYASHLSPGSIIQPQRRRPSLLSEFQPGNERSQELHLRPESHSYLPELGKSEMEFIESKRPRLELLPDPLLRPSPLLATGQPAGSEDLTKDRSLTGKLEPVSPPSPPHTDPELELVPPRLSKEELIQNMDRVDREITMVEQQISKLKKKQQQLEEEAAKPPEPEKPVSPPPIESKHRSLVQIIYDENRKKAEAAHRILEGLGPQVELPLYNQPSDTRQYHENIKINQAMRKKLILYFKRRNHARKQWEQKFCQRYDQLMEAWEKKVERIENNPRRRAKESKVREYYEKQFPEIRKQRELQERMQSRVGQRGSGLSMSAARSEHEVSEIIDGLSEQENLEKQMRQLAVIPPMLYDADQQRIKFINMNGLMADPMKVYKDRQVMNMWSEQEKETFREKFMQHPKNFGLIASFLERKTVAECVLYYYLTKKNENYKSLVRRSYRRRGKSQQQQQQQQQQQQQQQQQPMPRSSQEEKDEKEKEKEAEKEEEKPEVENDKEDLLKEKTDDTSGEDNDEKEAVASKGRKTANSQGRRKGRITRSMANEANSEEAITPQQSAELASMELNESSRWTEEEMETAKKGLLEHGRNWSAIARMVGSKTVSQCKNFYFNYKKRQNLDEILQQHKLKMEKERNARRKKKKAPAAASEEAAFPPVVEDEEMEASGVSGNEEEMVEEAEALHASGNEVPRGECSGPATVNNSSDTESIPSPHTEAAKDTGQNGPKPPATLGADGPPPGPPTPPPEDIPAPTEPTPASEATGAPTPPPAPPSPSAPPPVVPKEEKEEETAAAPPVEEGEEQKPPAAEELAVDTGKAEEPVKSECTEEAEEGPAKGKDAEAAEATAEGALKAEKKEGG

HDAC6 = target: T3, HDAC6 (Homo sapiens, UniProt Q9UBN7); assay: Human HDAC enzyme inhibitor Fluor-de-Lys assay, HDAC6
T3 sequence (Q9UBN7 1-1215): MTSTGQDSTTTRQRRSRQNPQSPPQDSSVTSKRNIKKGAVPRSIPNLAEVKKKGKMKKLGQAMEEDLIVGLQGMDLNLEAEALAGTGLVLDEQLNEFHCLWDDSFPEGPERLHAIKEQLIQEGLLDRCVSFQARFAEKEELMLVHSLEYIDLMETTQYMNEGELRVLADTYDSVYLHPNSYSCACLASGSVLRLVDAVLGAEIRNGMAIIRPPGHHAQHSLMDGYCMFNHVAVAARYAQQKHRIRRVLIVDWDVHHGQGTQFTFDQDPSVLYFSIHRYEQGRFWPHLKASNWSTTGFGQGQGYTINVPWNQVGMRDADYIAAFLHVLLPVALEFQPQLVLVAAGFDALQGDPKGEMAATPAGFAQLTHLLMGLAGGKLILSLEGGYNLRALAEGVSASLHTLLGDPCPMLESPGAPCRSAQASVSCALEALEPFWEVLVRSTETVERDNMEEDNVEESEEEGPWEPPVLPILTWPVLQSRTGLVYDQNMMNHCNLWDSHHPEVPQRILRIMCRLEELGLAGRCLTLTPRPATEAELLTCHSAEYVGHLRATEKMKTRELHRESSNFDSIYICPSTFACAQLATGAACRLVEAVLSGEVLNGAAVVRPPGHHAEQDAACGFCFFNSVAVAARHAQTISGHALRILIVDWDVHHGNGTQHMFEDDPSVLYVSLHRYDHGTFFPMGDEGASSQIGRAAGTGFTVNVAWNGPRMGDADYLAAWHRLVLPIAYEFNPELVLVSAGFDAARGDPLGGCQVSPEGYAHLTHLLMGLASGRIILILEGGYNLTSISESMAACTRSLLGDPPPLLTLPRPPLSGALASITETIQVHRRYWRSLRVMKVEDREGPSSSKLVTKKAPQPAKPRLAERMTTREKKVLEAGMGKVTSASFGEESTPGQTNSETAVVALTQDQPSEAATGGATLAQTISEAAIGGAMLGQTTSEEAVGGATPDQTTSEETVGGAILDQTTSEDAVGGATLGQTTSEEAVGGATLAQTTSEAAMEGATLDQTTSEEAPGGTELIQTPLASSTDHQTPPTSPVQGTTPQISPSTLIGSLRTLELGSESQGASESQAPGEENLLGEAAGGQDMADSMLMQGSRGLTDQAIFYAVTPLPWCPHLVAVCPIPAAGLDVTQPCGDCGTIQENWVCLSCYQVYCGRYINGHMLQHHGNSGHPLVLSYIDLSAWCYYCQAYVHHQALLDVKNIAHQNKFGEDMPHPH

Recombinant human HDAC1 = target: T4, Recombinant human HDAC1 (Homo sapiens, UniProt Q13547); assay: Human HDAC enzyme inhibitor Fluor-de-Lys assay, HDAC1
T4 construct: FLAG (C); made in house
T4 sequence (Q13547 whole entry): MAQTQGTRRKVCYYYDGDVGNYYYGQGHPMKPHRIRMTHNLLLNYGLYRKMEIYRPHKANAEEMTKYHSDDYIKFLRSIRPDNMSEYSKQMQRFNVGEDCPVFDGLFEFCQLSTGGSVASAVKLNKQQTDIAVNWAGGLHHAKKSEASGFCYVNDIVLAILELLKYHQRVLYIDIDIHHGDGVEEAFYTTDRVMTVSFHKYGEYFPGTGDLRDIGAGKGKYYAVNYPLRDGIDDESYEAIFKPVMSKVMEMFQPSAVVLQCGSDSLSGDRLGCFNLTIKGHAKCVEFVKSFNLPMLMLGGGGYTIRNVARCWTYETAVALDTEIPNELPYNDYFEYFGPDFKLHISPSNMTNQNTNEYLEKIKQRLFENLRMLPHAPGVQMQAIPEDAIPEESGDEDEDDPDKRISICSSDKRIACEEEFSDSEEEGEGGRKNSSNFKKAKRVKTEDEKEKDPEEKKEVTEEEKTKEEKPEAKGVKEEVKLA
Summary of the method: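 Fluor-de-Lys format at room temperature (23° C.): compounds titrated 10-point, 1:3, preincubated with HDAC before substrate addition; HDAC1 run at 0.3 nM enzyme with 20 μM BML-KI104. Developer with excess HDAC inhibitor ends the reaction, and trypsin-liberated AMC fluorescence is the read-out.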

| SMILES | IC50 (Recombinant human HDAC8) [nM] | IC50 [1] [nM] | IC50 (HDAC6) [nM] | IC50 (Recombinant human HDAC1) [nM] |
| --- | --- | --- | --- | --- |
| CCC(=O)CCCCC[C@H](NC(=O)[C@H]1CC12CCN(C)CC2)c1ncc(-c2ccc(-c3ccc(C4CC4)nc3)cc2)o1 [Compound 143] | 13100 | 32 | 3660 | 65.1 |
| CCC(=O)CCCCC[C@H](NC(=O)C1CC2(CCN(C)CC2)C1)c1ncc(-c2ccc3nn(C)cc3c2)[nH]1 [Compound 145] | 4270 | 2.61 | 5760 | 5.85 |
| CCC(=O)CCCCC[C@H](NC(=O)[C@H]1CC12CCN(C)CC2)c1ncc(-c2ccc3nc(C4CC4)sc3c2)[nH]1 [Compound 146] | 7710 | 0.64 | 7730 | 1.06 |
| CCC(=O)CCCCC[C@H](NC(=O)C1CC2(C1)CN(C)C2)c1ncc(-c2ccc3nn(C)cc3c2)[nH]1 [Compound 147] | 2770 | < 1.5 | 3660 | 2.29 |
| CCC(=O)CCCCC[C@H](NC(=O)[C@H]1CC12CCN(C)CC2)c1ncc(-c2ccc3nc(CC)sc3c2)[nH]1 [Compound 149] | 2720 | 0.62 | 3660 | 0.5 |
| CCC(=O)CCCCC[C@H](NC(=O)[C@H]1CC12CCN(CC)CC2)c1ncc(-c2ccc3c(=O)n(C4CC4)ccc3c2)[nH]1 [Compound 150] | 4370 | 0.25 | 7050 | 0.19 |
| CCC(=O)CCCCC[C@H](NC(=O)[C@H]1CC12CCN(CC)CC2)c1ncc(-c2ccc3c(=O)n(C4CC4)ccc3c2)o1 [Compound 153] | > 15000 | 6.14 | 10400 | 5.44 |
| CCC(=O)CCCCC[C@H](NC(=O)C1=NOC2(CCN(C)CC2)C1)c1ncc(-c2ccc3nn(C)cc3c2)[nH]1 [Compound 154] | 12100 | 2.76 | 18100 | 6.03 |
| CCC(=O)CCCCC[C@H](NC(=O)CN1CCC2(CC1)CC2)c1ncc(-c2ccc3nn(C)cc3c2)[nH]1 [Compound 155] | 8130 | 2.05 | 8940 | 6.91 |
| CCC(=O)CCCCC[C@H](NC(=O)C1CCC2(CC1)CN(C)C2)c1ncc(-c2ccc3nn(C)cc3c2)[nH]1 [Compound 156] | 5830 | 1.98 | 7530 | 5.03 |
| CCC(=O)CCCCC[C@H](NC(=O)C1(CC(C)C)CC2(CN(C)C2)C1)c1ncc(-c2ccc3nc(C)ccc3c2)[nH]1 [Compound 157] | 4180 | 4.01 | 8530 | 5.39 |
| CCC(=O)CCCCC[C@H](NC(=O)[C@H]1CC12CCN(CC)CC2)c1ncc(-c2ccc3c(cnn3C3CC3)c2)[nH]1 [Compound 159] | 4620 | 0.49 | 2950 | 0.44 |
| CCC(=O)CCCCC[C@H](NC(=O)[C@H]1CC12CCN(C)CC2)c1ncc(-c2ccc3nc(C4CC4)oc3c2)[nH]1 [Compound 160] | 16800 | 2.75 | 10400 | 1.89 |
| CCC(=O)CCCCC[C@H](NC(=O)[C@H]1CC12CCN(CC)CC2)c1ncc(-c2ccc(-c3cnc(C4CC4)nc3)cc2)o1 [Compound 161] | 26800 | 33 | 11700 | 54.5 |
| CCC(=O)CCCCC[C@H](NC(=O)[C@H]1CC12CCN(CC)CC2)c1ncc(-c2ccc3c(=O)n(CC)ccc3c2)o1 [Compound 162] | > 45000 | 2.84 | 6530 | 3.24 |
| CCN1CCC2(CC1)C[C@@H]2C(=O)N[C@@H](CCCCCC(=O)CC1CC1)c1ncc(-c2cc3ccc(C)nc3cc2OC)[nH]1 [Compound 165] | 14700 | 2.14 | 11900 | 1.18 |
| CCN1CCC2(CC1)C[C@@H]2C(=O)N[C@@H](CCCCCC(=O)CC1CC1)c1ncc(-c2cc3ccc(C)nc3cc2OC)o1 [Compound 167] | 8270 | 1.12 | 3320 | 0.97 |
